Source: PMC6568020, “Elucidating the Hot Spot Residues of Quorum Sensing Peptidic Autoinducer PapR by Multiple Amino Acid Replacements” (Frontiers in Microbiology, 2019)
“Also recorded” adds a separate entry of the source. Where a SMILES comes first, the peptide text is derived from it. [ ]: non-standard residue; d: D form.

What was measured:
[1] = test system: PlcR regulon (plcA promoter-lacZ fusion); experiment: Competition studies of PapR7-derived peptides with endogenous PapR, β-galactosidase (lacZ reporter) assay; type: cell-based, B. thuringiensis 407 Cry- plcA'Z (Bt A'Z); details: Bt A'Z; for reduction of plcA'Z activity: 2.5 μM peptide, added at late-exponential phase (OD600 1.8 ± 0.1), normalized to untreated cells, mean; for reduction of plcA'Z activity / effect on plcA'Z activation / PlcR regulon activity after 24 h (in words) / effect on plcA'Z activation at low cell density (in words): n = 9; for IC50: late-exponential phase (OD600 1.8 ± 0.1), competition with endogenous PapR, mean ± SEM, SEM, read-out: IC50, lacZ-based reporter assay; for effect on plcA'Z activation / PlcR regulon activity after 24 h (in words) / effect on plcA'Z activation at low cell density (in words): 10 μM peptide; for effect on plcA'Z activation / PlcR regulon activity after 24 h (in words): added at OD600 0.1 ± 0.03, harvested after 24 h; for effect on plcA'Z activation at low cell density (in words): added at OD600 0.1 ± 0.03, quantified after 2.5 h; for class of inhibitory activity throughout the competition studies: plcA'lacZ, summary of the competition studies
Description: Bacterial strains used in this study: B. thuringiensis 407 Cry ^- plcA′Z (Bt A’Z) and the PapR null-mutant 407 Cry ^- ΔpapR plcA’Z (Bt ΔpapR A’Z) strains, containing a transcriptional fusion between the promoter of plcA and the lacZ reporter gene (as described previously; [Gominet et al., 2001]; [Slamti and Lereclus, 2002]); B. cereus strain ATCC 14579 ([Ivanova et al., 2003]). Unless otherwise noted, cells were grown in modified LB medium (16 g/L tryptone, 8 g/L yeast extract, 5 g/L NaCl) at 37°C and stored at −80°C in LB containing 25% glycerol. Kanamycin (200 μg/mL) was used for the selection of B. thuringiensis.
Bt A’Z cells were grown overnight in LB medium. The cells were diluted 10^–3 in modified LB to a final volume of 1 L and incubated at 37°C with shaking (200 rpm) until the end of the lag or late-exponential of bacterial growth (OD600 0.1 ± 0.03; 1.8 ± 0.1, respectively). Different concentrations of synthetic peptides were added to 2 ml aliquots of culture and incubated for various times (1–24 h) before centrifugation (Eppendorf centrifuge R5810, 4000 rpm for 5 min) and quantification of β-galactosidase activity.
β-galactosidase activity was measured as described previously ([Yang et al., 2017]), with minor modifications. Briefly, 200 μL aliquots from 2 ml treated cultures were added in triplicate to a clear 96-well microtiter plate, and then OD600 was measured and β-galactosidase activity was assayed. The final results were reported as percentage of activation, which is the ratio between the Miller units obtained after addition of the PapR7 analogs. In Bt ΔpapR A’Z strain, the plcA promoter activity was very low and considered as a baseline. In Bt A’Z strain, the untreated bacteria were considered as 100% of activation and the results were normalized accordingly. Each assay was repeated at least three times.

[2] = test system: B. cereus ATCC 14579; type: cell-based, Bacillus cereus; details: n = 9; for IC50: supernatant of B. cereus ATCC 14579 cultures treated at OD600 0.1 ± 0.03 for 2.5 h, 1% human red blood cells, 30 min, 37°C, absorbance at 420 nm, mean ± SEM, SEM, read-out: IC50, hemolytic assay; for reduction of hemolytic activity: 10 μM peptide, B. cereus ATCC 14579 treated at OD600 0.1 ± 0.03, human red blood cells, normalized to untreated
Description: Bt A’Z or B. cereus ATCC 14579 cells were grown overnight in LB medium. The cells were diluted 10^–3 in modified LB to a final volume of 1 liter and incubated at 37°C with shaking (200 rpm) until the end of the lag phase of bacterial growth (OD600 0.1 ± 0.03). Different concentrations of synthetic peptides were added to 2 ml aliquots of culture and incubated for 2.5 h before centrifugation (Eppendorf centrifuge R5810, 4000 rpm for 5 min), separation and filtration (0.2 μm filter) of the supernatants of the treated cultures. Analyses of hemolytic activity were conducted as previously described using human red blood cells ([Tal-Gan et al., 2013b]; [Lobel et al., 2015]). Bacterial supernatants were serially diluted in Tris-buffered saline (pH 7.2, 10 mM Tris–HCl, 155 mM NaCl) with 1% human red blood cells (hRBC) suspension and were incubated for 30 min at 37°C. Hemolytic activities were measured by monitoring the absorbance at 420 nm.

[3] = target: PlcR of B. thuringiensis 407 Cry- (B. thuringiensis (endogenous in strain 407 Cry- plcA'Z))
[4] = target: PlcR of B. cereus ATCC 14579 (B. cereus (endogenous in strain ATCC 14579))
[5] = target: PlcR of B. cereus ATCC 14579 (B. cereus (endogenous in strain ATCC 14579)); remark: listed apart in the source
[6] = target: PlcR of B. thuringiensis 407 Cry- (B. thuringiensis (endogenous in strain 407 Cry- plcA'Z)); remark: listed apart in the source
[7] = target: PlcR of B. cereus ATCC 14579 (B. cereus (endogenous in strain ATCC 14579)); remark: listed apart in the source

Compound	reduction of plcA'Z activity [1]	IC50 [1]	IC50 [2]	effect on plcA'Z activation at low cell density (in words) [1]	class of inhibitory activity throughout the competition studies [1]	reduction of plcA'Z (β-galactosidase) activity in Bt A'Z cells, 2.5 μM peptide added at late-exponential phase; the pair that is blocked: endogenous PapR with PlcR [3]	other results
CC(C)C[C@H](NC(=O)[C@H](CC(=O)O)NC(=O)[C@H](C)N)C(=O)N1CCC[C@H]1C(=O)N[C@@H](Cc1ccccc1)C(=O)N[C@H](CCC(=O)O)C(=O)N[C@@H](Cc1ccccc1)C(N)=O [PapR7-dE6, reference compound] (H-ADLPF[dE]F-NH2; N-terminus assumed)	65%	977 ± 42 nM	1050 ± 89 nM				
CC(C)C[C@H](NC(=O)[C@H](CC(=O)O)NC(=O)[C@H](C)N)C(=O)N1CCC[C@H]1C(=O)N[C@@H](Cc1ccccc1)C(=O)N[C@H](CCC(=O)O)C(=O)N[C@@H](C)C(N)=O [PapR7-dE6:F7A] (H-ADLPF[dE]A-NH2; N-terminus assumed)	65%	2570 ± 203 nM	2500 ± 212 nM	blocked plcA’Z activation	very potent inhibitors		effect on plcA'Z activation / PlcR regulon activity after 24 h (in words) [1]: blocked plcA’Z activation; also recorded: blocked the PlcR regulon activity
CC(C)C[C@H](NC(=O)[C@H](CC(=O)O)NC(=O)[C@H](C)N)C(=O)N1CCC[C@H]1C(=O)N[C@@H](Cc1ccccc1)C(=O)N[C@H](CCC(=O)O)C(=O)N[C@H](Cc1ccccc1)C(N)=O [PapR7-dE6:dF7] (H-ADLPF[dE][dF]-NH2; N-terminus assumed)	71%	1680 ± 170 nM	1380 ± 117 nM	blocked plcA’Z activation	very potent inhibitors		effect on plcA'Z activation / PlcR regulon activity after 24 h (in words) [1]: blocked plcA’Z activation; also recorded: blocked the PlcR regulon activity
CC(C)C[C@H](NC(=O)[C@H](CC(=O)O)NC(=O)[C@H](C)N)C(=O)N1CCC[C@H]1C(=O)N[C@@H](Cc1ccccc1)C(=O)N[C@@H](CCC(=O)O)C(=O)N[C@H](Cc1ccccc1)C(N)=O [PapR7-dF7, reference compound] (H-ADLPFE[dF]-NH2; N-terminus assumed)	63%	1220 ± 72 nM	3040 ± 206 nM				
ADLAFEA [PapR7-P4A:F7A, second-generation PapR7-derived peptide ADLAFEA]	approximately 40%			drastic reduction in plcA’Z activity	median to high inhibitory activities		reduction of hemolytic activity [2]: ~60%
ADLAFEdF [PapR7-P4A:dF7, second-generation PapR7-derived peptide ADLAFEdF]	approximately 40%			drastic reduction in plcA’Z activity	median to high inhibitory activities		reduction of hemolytic activity [2]: approximately 83%
PapR7-E6A:F7A (peptide)						40%	reduction of the hemolytic activity (human red blood cells) of supernatants of B. cereus ATCC 14579 cultures treated with 10 μM peptide; the pair that is blocked: native PapR with PlcR [4]: 60%
PapR7-E6A:dF7 (peptide)						40%	inhibition of the hemolytic activity (human red blood cells) of supernatants of B. cereus ATCC 14579 cultures treated with 10 μM peptide; the pair that is blocked: native PapR with PlcR [5]: 83%
PapR7-F7A (peptide)						70%	IC50 of inhibition of plcA'Z (β-galactosidase) activity in Bt A'Z cells, lacZ-based reporter assay; the pair that is blocked: endogenous PapR with PlcR [6]: 1680 nM; IC50 of inhibition of the hemolytic activity (human red blood cells) of supernatants of treated B. cereus ATCC 14579 cultures; the pair that is blocked: native PapR with PlcR [7]: 2720 nM
